# Measurements from PubChem BioAssay (NCI).
# Several values for one entry are separate records, joined by “and”; a condition that tells them apart may be missing. Identical values can stand only once.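 Results reflect a 48-hour exposure of cells in 96-well plates to compound at five concentrations. GI50: concentration for 50% inhibition of growth. Definition used: TGI = concentration required for complete inhibition of growth.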
# Assays:
# Test in all cases: growth of human tumour cells (NCI), 48 h
# [1] = test system: RPMI-8226 leukemia
# [2] = test system: LOX IMVI melanoma
# [3] = test system: SW-620 colon
# [4] = test system: MDA-MB-435
# [5] = test system: SK-MEL-2 melanoma
# [6] = test system: NCI-H226 lung
# [7] = test system: SF-539 CNS
# [8] = test system: A549 NSCLC
# [9] = test system: RXF 393 renal
# [10] = test system: U251 CNS
# [11] = test system: PC-3 prostate
# [12] = test system: NCI-H522 lung
# [13] = test system: OVCAR-8 ovarian
# [14] = test system: K-562 leukemia
# [15] = test system: HL-60(TB) leukemia
# [16] = test system: SR leukemia
# [17] = test system: CCRF-CEM leukemia
# [18] = test system: 786-0 renal
# [19] = test system: TK-10 renal
# [20] = test system: CAKI-1 renal
# [21] = test system: SK-MEL-5 melanoma
# [22] = test system: HCT-15 colon
# [23] = test system: MDA-N
# [24] = test system: HS 578T breast
# [25] = test system: MOLT-4 leukemia
# [26] = test system: HCT-116 colon
# [27] = test system: MALME-3M melanoma
# [28] = test system: M14 melanoma
# [29] = test system: KM12 colon
# [30] = test system: SK-MEL-28 melanoma
# [31] = test system: HT29 colon
# [32] = test system: SNB-75 CNS
# [33] = test system: SNB-19 CNS
# [34] = test system: T-47D breast
# [35] = test system: SF-268 CNS
# [36] = test system: A498 renal
# [37] = test system: SN12C renal
# [38] = test system: EKVX NSCLC
# [39] = test system: SK-OV-3 ovarian
# [40] = test system: NCI-H23 lung
# [41] = test system: DU-145 prostate
# [42] = test system: HOP-92 NSCLC
# [43] = test system: SF-295 CNS
# [44] = test system: MDA-MB-231 breast
# [45] = test system: OVCAR-4 ovarian
# [46] = test system: IGROV1 ovarian
# [47] = test system: MCF7 breast
# [48] = test system: ACHN renal
# [49] = test system: UACC-62 melanoma
# [50] = test system: UO-31 renal
# [51] = test system: NCI-H460 lung
# [52] = test system: HCC-2998 colon
# [53] = test system: OVCAR-3 ovarian
# [54] = test system: HOP-62 NSCLC
# [55] = test system: NCI/ADR-RES ovarian
# [56] = test system: OVCAR-5 ovarian
# [57] = test system: BT-549 breast
# [58] = test system: UACC-257 melanoma
# [59] = test system: COLO 205 colon
# [60] = test system: LXFL 529 NSCLC
structure (smiles),measurement,setting,value
O=C(O)C(CO)NC(=O)C1C(C(=O)O)C(c2ccccc2[N+](=O)[O-])C=C(c2ccco2)N1c1ccncc1 (configuration not stated),TGI,[1],4.22 µM
same,TGI,[2],3.42 µM
same,TGI,[3],3.79 µM
same,TGI,[4],16.8 µM
same,TGI,[5],31 µM
same,TGI,[6],39.1 µM
same,TGI,[7],3.64 µM
same,TGI,[8],11.1 µM
same,TGI,[9],3.12 µM
same,TGI,[10],6.21 µM
same,TGI,[11],22.1 µM
same,TGI,[12],19 µM
same,TGI,[13],31 µM
same,TGI,[14],5.74 µM
same,TGI,[15],> 100 µM
same,TGI,[16],> 100 µM
same,TGI,[17],5.32 µM
same,TGI,[18],6.01 µM
same,TGI,[19],9.48 µM
same,TGI,[20],24.3 µM
same,TGI,[21],10.2 µM
same,TGI,[22],4.39 µM
same,TGI,[23],8.42 µM
same,TGI,[24],57.5 µM
same,TGI,[25],> 22.5 µM
same,TGI,[26],3.08 µM
same,TGI,[27],29.1 µM
same,TGI,[28],13.9 µM
same,TGI,[29],3.35 µM
same,TGI,[30],22.5 µM
same,TGI,[31],3.66 µM
same,TGI,[32],22.3 µM
same,TGI,[33],24.5 µM
same,TGI,[34],23.9 µM
same,TGI,[35],30.5 µM
same,TGI,[36],24.8 µM
same,TGI,[37],25.4 µM
same,TGI,[38],32.7 µM
same,TGI,[39],29.4 µM
same,TGI,[40],19.9 µM
same,TGI,[41],23.6 µM
same,TGI,[42],25.7 µM
same,TGI,[43],19 µM
same,TGI,[44],7.56 µM
same,TGI,[45],25.3 µM
same,TGI,[46],4.15 µM
same,TGI,[47],5.63 µM
same,TGI,[48],3.67 µM
same,TGI,[49],20.3 µM
same,TGI,[50],10.4 µM
same,TGI,[51],18.5 µM
same,TGI,[52],9.13 µM
same,TGI,[53],17.1 µM
same,TGI,[54],25.2 µM
same,TGI,[55],59 µM
same,TGI,[56],25.4 µM
same,TGI,[57],22.8 µM
same,TGI,[58],9.9 µM
same,TGI,[59],12 µM
N#Cc1c(-c2ccccc2)cc(-c2ccccc2)n(C2OC(CO)C(O)C(O)C2O)c1=O (configuration not stated),TGI,[1],> 100 µM
same,TGI,[2],> 100 µM
same,TGI,[14],> 100 µM
same,TGI,[15],> 100 µM
same,TGI,[60],> 100 µM
same,TGI,[16],> 100 µM
same,TGI,[17],> 100 µM
same,TGI,[25],> 100 µM
same,GI50,[32],34.4 µM and 14.5 µM
same,TGI,[32],> 100 µM and 80.9 µM
same,GI50,[42],88.4 µM and 31.9 µM
same,TGI,[42],> 100 µM
same,TGI,[49],> 100 µM
CC(C)(C)OC(=O)N1C/C=C\C(=O)C2(OCCO2)c2ccccc21,TGI,[1],54.1 µM
same,TGI,[2],32.6 µM
same,TGI,[3],58.7 µM
same,TGI,[4],34 µM
same,TGI,[5],68.5 µM
same,TGI,[6],38.9 µM
same,TGI,[7],50.3 µM
same,TGI,[8],> 100 µM
same,TGI,[9],37.8 µM
same,TGI,[10],> 100 µM
same,TGI,[11],> 100 µM
same,TGI,[12],78.8 µM
same,TGI,[13],86.6 µM
same,TGI,[14],57.1 µM
same,TGI,[16],77.9 µM
same,TGI,[17],57 µM
same,TGI,[18],56.9 µM
same,TGI,[19],47.3 µM
same,TGI,[20],> 100 µM
same,TGI,[21],31.7 µM
same,TGI,[22],> 100 µM
same,TGI,[23],48.3 µM
same,TGI,[24],> 100 µM
same,TGI,[25],76.5 µM
same,TGI,[26],34.9 µM
same,TGI,[27],48.1 µM
same,TGI,[28],65.1 µM
same,TGI,[29],> 100 µM
same,TGI,[30],49.5 µM
same,TGI,[31],42 µM
same,TGI,[32],99.2 µM
same,TGI,[33],> 100 µM
same,TGI,[34],49.5 µM
same,TGI,[35],> 100 µM
same,TGI,[36],> 100 µM
same,TGI,[37],88.9 µM
same,TGI,[38],> 100 µM
same,TGI,[39],99.2 µM
same,TGI,[40],> 100 µM
same,TGI,[41],81.8 µM
same,TGI,[42],44.2 µM
same,TGI,[43],73.9 µM
same,TGI,[44],40.8 µM
same,TGI,[45],> 100 µM
same,TGI,[46],33.4 µM
same,TGI,[47],96.2 µM
same,TGI,[48],> 100 µM
same,TGI,[50],43.1 µM
same,TGI,[51],50.5 µM
same,TGI,[53],29.6 µM
same,TGI,[54],> 100 µM
same,TGI,[55],> 100 µM
same,TGI,[56],> 100 µM
same,TGI,[57],51.4 µM
same,TGI,[58],39.3 µM
same,TGI,[59],35.7 µM
Cc1ccc(Nc2nc(NS(=O)(=O)c3cc(C)c(Cl)cc3S)n[nH]2)cc1,TGI,[1],> 100 µM
same,TGI,[2],> 100 µM
same,TGI,[3],> 100 µM
same,TGI,[4],> 100 µM
same,TGI,[5],> 100 µM
same,TGI,[6],> 100 µM
same,TGI,[7],> 100 µM
same,TGI,[8],> 100 µM
same,TGI,[9],> 100 µM
same,TGI,[10],> 100 µM
same,TGI,[11],> 100 µM
same,TGI,[12],> 100 µM
same,TGI,[13],> 100 µM
same,TGI,[14],> 100 µM
same,TGI,[15],> 100 µM
same,TGI,[16],> 100 µM
same,TGI,[17],> 100 µM
same,TGI,[18],> 100 µM
same,TGI,[19],> 100 µM
same,TGI,[20],> 100 µM
same,TGI,[21],> 100 µM
same,TGI,[22],> 100 µM
same,TGI,[23],> 100 µM
same,TGI,[24],> 100 µM
same,TGI,[25],> 100 µM
same,TGI,[26],> 100 µM
same,TGI,[27],> 100 µM
same,TGI,[28],> 100 µM
same,TGI,[29],> 100 µM
same,TGI,[30],> 100 µM
same,TGI,[31],> 100 µM
same,TGI,[32],> 100 µM
same,TGI,[33],> 100 µM
same,TGI,[34],> 100 µM
same,TGI,[35],> 100 µM
same,TGI,[36],> 100 µM
same,TGI,[37],> 100 µM
same,TGI,[38],> 100 µM
same,TGI,[39],> 100 µM
same,TGI,[40],> 100 µM
same,TGI,[41],> 100 µM
same,TGI,[42],> 100 µM
same,TGI,[43],> 100 µM
same,TGI,[44],> 100 µM
same,TGI,[45],> 100 µM
same,TGI,[46],> 100 µM
same,TGI,[47],> 100 µM
same,TGI,[48],> 100 µM
same,TGI,[49],> 100 µM
same,TGI,[50],> 100 µM
same,TGI,[51],> 100 µM
same,TGI,[52],> 100 µM
same,TGI,[53],> 100 µM
same,TGI,[54],> 100 µM
same,TGI,[55],> 100 µM
same,TGI,[56],> 100 µM
same,TGI,[57],> 100 µM
same,TGI,[58],> 100 µM
same,TGI,[59],> 100 µM
